Source: paper PMC13047053, “Crystal structure of human INPP5K with an allosteric inhibitor reveals the structural basis for species specific potency” (Scientific Reports, 2026)

Molecular target: T1, full-length human INPP5K (INPP5K-full) (Homo sapiens, UniProt Q9BT40)
T1 construct: full-length human INPP5K (amino acids 1–448, UniProt ID: Q9BT40); FLAG (N); made in house; host or cells: Expi293 cells (pcDNA3.4, transient)
T1 sequence (Q9BT40 1-448): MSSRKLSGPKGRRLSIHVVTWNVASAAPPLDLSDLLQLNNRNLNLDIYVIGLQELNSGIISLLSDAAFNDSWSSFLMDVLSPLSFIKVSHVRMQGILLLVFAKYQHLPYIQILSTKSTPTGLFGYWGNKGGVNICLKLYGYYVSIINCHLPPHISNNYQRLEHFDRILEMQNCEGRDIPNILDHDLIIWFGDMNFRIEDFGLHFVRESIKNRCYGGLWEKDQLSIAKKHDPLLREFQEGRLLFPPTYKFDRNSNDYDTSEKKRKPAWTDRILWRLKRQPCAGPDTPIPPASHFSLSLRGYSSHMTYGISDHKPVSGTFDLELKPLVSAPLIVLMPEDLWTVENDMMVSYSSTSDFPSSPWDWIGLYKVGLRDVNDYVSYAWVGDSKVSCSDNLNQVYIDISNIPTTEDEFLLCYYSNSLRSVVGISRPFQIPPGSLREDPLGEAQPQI
Assay: Fluorescence polarization assay to evaluate phosphatase inhibition
Assay type: biochemical
Details: 20 µM diC8-PI(3,4,5)P3, 30 min
Description: The protein purification is described in detail elsewhere. Briefly, full-length human INPP5K (amino acids 1–448, UniProt ID: Q9BT40), rat INPP5K (aa 1–446, UniProt ID: Q9R0B6), mouse INPP5K (aa 1–468, UniProt ID: Q8C5L6), hamster INPP5K (aa 1–453, UniProt ID: G3HTF6), guinea pig INPP5K (aa 1–473, UniProt ID: H0V8T7) containing an N-terminal FLAG-tag, full-length human SHIP2 (aa 1–1 258) containing a C-terminal FLAG-tag, and full-length human PIPP (amino acids 1–1 006) containing an N-terminal His8-tag were all cloned into the pcDNA3.4 expression vector and transiently expressed in Expi293 cells (Thermo Fisher Scientific). […] The purity of the protein obtained was evaluated using SDS-PAGE.
HTS assays were performed as described previously. […] Fluorescence polarization was evaluated using an Envision plate reader (PerkinElmer, U.S. LLC, Shelton, CT, USA) at 531/595 nm (excitation/emission) and calculated as 1 000 × [(I||- (G × I⊥))/(I||+ (G × I⊥))], where I|| is the parallel intensity, I⊥ is the perpendicular intensity, and G = 2.25. The amount of diC8-PI(3,4)P₂ product (P) was determined by standard curve fitting, and the percentage inhibition was calculated using the following equation: 100 × (Pctrl—P)/(Pctrl—Pblank), where Pctrl is the no-inhibitor control and Pblank is the no-enzyme control. […]

SMILES: CC(C)c1sc(NC(=O)c2ccccc2)c(C(=O)O)c1-c1ccccc1 [CPD-1]
- IC50: 3.7 µM
